Test results from patent publication US11896579B2, “Combination drug” (Chugai Seiyaku Kabushiki Kaisha, priority 2015, dated 2024).

System: human non-small cell lung cancer cell line NCI-H2228 which is positive for the ALK fusion gene
Test: NCI-H2228 xenograft tumor volume in SCID mice
Assay type: in vivo
Details: SCID mice with NCI-H2228 transplant; agent alone: bevacizumab 5 mg/kg i.p. once a week; cisplatin 5 mg/kg i.v. once a week; paclitaxel 12.5 mg/kg i.v. once a week; gemcitabine 60 mg/kg i.p. twice a week
Procedure: In the FIGURE, the horizontal axis represents the number of days elapsed after the transplantation of the cells, and the vertical axis represents the tumor volume and the body weight change rate. Control represents control groups to which a solvent is administered and combo represents combined use groups.

Compound | change in tumor volume during administration alone
CC(=O)O[C@H]1C(=O)[C@@]2(C)[C@H]([C@H](OC(=O)c3ccccc3)[C@]3(O)C[C@H](OC(=O)[C@H](O)[C@@H](NC(=O)c4ccccc4)c4ccccc4)C(C)=C1C3(C)C)[C@]1(OC(C)=O)CO[C@@H]1C[C@@H]2O [paclitaxel] | No significant change in tumor volume
Nc1ccn([C@@H]2O[C@H](CO)[C@@H](O)C2(F)F)c(=O)n1 [gemcitabine] | No significant change in tumor volume
N.N.[Cl][Pt][Cl] [cisplatin] | No significant change in tumor volume
bevacizumab: anti-human VEGF antibody | increases in tumor volume were observed
